Results from US20090068290A1, “BIFEPRUNOX DOSES FOR TREATING SCHIZOPHRENIA” (priority 2006, published 2009).

Tests used:
Assay type in all cases: in vivo, human
[1] = tested on: adult subjects with schizophrenia; assay: PANSS negative symptom subscale score, Clinical Study Two; settings: Bifeprunox 40 mg, LOCF, ITT
Experimental: Rating scale assessments were performed weekly, except for week 5, to measure the change from baseline to endpoint of the PANSS total score. Other assessments included: PANSS positive symptom subscale score, PANSS negative symptom subscale score, PANSS general pschopathology subscale score, BPRS total score, BPRS psychosis score, the CGI-S score, the CGI-I score, responder rates based on the PANSS total score, and the Calgary Depression Scale for Schizophrenia (CDSS). […]
Subjects who completed this study had the option to continue in the long-term. […] Risperidone-treated subjects were titrated from 2 mg to 6 mg daily over a three-day period and were subsequently maintained at 6 mg/day for the remainder of the treatment period. […] Blood samples were also obtained at Screening/Baseline, Week 3, and Week 6 for clinical laboratory assessments.

[2] = tested on: adult subjects with schizophrenia; assay: CGI Severity of Illness score, Clinical Study One; design: Change from Baseline in CGI Severity of Illness Score, Median: scale not given here; settings: for Change from Baseline in CGI Severity of Illness Score, Mean (S.D.) / Change from Baseline in CGI Severity of Illness Score, Median / Change from Baseline in CGI Severity of Illness Score, Trt Effect (bifeprunox—placebo): ITT population
Experimental: (§1) There were five treatment groups in this study. […] Study medication was administered once daily. After Baseline measurements were performed, the titration phase was begun. Bifeprunox treated subjects were titrated up to 5 mg, 10 mg or 20 mg according to a standardized titration schedule (Day 1: 0.125 mg, Day 2: 0.25 mg, Day 3: 0.5 mg, Day 4: 1.0 mg, Day 5: 2.0 mg, Day 6: 5.0 mg, Day 7: 10.0 mg, Day 8: 20 mg). When the assigned dose was reached, subjects were maintained at that dose for the remainder of the six-week treatment period.
The change in the Positive and Negative Symptom Scale (PANSS) total score, from baseline to endpoint, was the primary outcome measure. Secondary efficacy measures included: PANSS positive, PANSS negative, PANSS general psychopathology (GPP) score, PANSS-derived Brief Psychiatric Rating Scale (BPRS) score, Clinical Global Impressions-Severity of Illness (CGI-S), CGI-Improvement (CGI-I) scores, and responder rates. Safety and tolerability evaluations included extrapyramidal symptoms (EPS), weight gain, lipid profile, and serum prolactin.

[3] = tested on: adult subjects with schizophrenia; assay: PANSS responder rates, Clinical Study One; settings: for PANSS responder rate, 20% definition: Endpoint LOCF; for PANSS Responder at Endpoint (LOCF), 20% Definition / PANSS Responder at Endpoint (LOCF), 25% Definition / PANSS Responder at Endpoint (LOCF), 30% Definition / PANSS Responder at Endpoint (LOCF), 35% Definition: ITT
Experimental: as §1

[4] = tested on: adult subjects with schizophrenia; assay: CGI responder rate, Clinical Study Three; settings: LOCF; for CGI Responder No, % / CGI Responder Yes, %: Week 6/Endpoint
Excerpt: CLINICAL STUDY THREE: A CGI responder is defined as a subject who is categorized as “very much improved” or “much improved” on the CGI Improvement scale. […] No notable differences were observed between the placebo group and either of the two bifeprunox dose groups.

[5] = Bifeprunox 10 mg, Endpoint LOCF
[6] = Bifeprunox 20 mg, Endpoint LOCF

O=c1[nH]c2cccc(N3CCN(Cc4cccc(-c5ccccc5)c4)CC3)c2o1 [Bifeprunox, 7-[4-([1,1′-biphenyl]-3-ylmethyl)-1-piperazinyl]-2(3H)-benzoxazolone]
Change from Baseline in PANSS Negative Symptom Subscale Score, Median ([1]; Week 2): −2 | Change from Baseline in PANSS Negative Symptom Subscale Score, Mean (SD) ([1]; Week 3): −2.2 (4.7) | Change from Baseline in PANSS Negative Symptom Subscale Score, Median ([1]; Week 3): −1 | Change from Baseline in PANSS Negative Symptom Subscale Score, Mean (SD) ([1]; Week 4): −2.1 (4.9) | Change from Baseline in PANSS Negative Symptom Subscale Score, Median ([1]; Week 4): −1 | Change from Baseline in PANSS Negative Symptom Subscale Score, Mean (SD) ([1]; Week 6/Endpoint): −2.2 (5.4) | Change from Baseline in PANSS Negative Symptom Subscale Score, Median ([1]; Week 6/Endpoint): −1 | PANSS Negative Symptom Subscale Score, Trt Effect (bifeprunox—placebo) ([1]; Week 6/Endpoint, ANCOVA): −0.9 | CGI severity of illness score, treatment effect (bifeprunox—placebo) ([2]; Bifeprunox 5 mg, Endpoint LOCF): −0.31 | Change from Baseline in CGI Severity of Illness Score, Mean (S.D.) ([2]; Bifeprunox 5 mg, Endpoint LOCF): −0.58 (1.10) | Change from Baseline in CGI Severity of Illness Score, Median ([2]; Bifeprunox 5 mg, Endpoint LOCF): 0.0 | Change from Baseline in CGI Severity of Illness Score, Trt Effect (bifeprunox—placebo) ([2]; Bifeprunox 5 mg, Endpoint LOCF): −0.31 | Change from Baseline in CGI Severity of Illness Score, Mean (S.D.) ([2]; Bifeprunox 5 mg, Week 1, LOCF): −0.18 (0.68) | Change from Baseline in CGI Severity of Illness Score, Median ([2]; Bifeprunox 5 mg, Week 1, LOCF): 0.0 | Change from Baseline in CGI Severity of Illness Score, Mean (S.D.) ([2]; Bifeprunox 5 mg, Week 2, LOCF): −0.37 (0.83) | Change from Baseline in CGI Severity of Illness Score, Median ([2]; Bifeprunox 5 mg, Week 2, LOCF): 0.0 | Change from Baseline in CGI Severity of Illness Score, Mean (S.D.) ([2]; Bifeprunox 5 mg, Week 3, LOCF): −0.47 (0.90) | Change from Baseline in CGI Severity of Illness Score, Median ([2]; Bifeprunox 5 mg, Week 3, LOCF): 0.0 | Change from Baseline in CGI Severity of Illness Score, Mean (S.D.) ([2]; Bifeprunox 5 mg, Week 4, LOCF): −0.52 (1.01) | Change from Baseline in CGI Severity of Illness Score, Median ([2]; Bifeprunox 5 mg, Week 4, LOCF): 0.0 | CGI severity of illness score, treatment effect (bifeprunox—placebo) [2, 5]: 0.12 | Change from Baseline in CGI Severity of Illness Score, Mean (S.D.) [2, 5]: −0.18 (1.04) | Change from Baseline in CGI Severity of Illness Score, Median [2, 5]: 0.0 | Change from Baseline in CGI Severity of Illness Score, Trt Effect (bifeprunox—placebo) [2, 5]: 0.12 | Change from Baseline in CGI Severity of Illness Score, Mean (S.D.) ([2]; Bifeprunox 10 mg, Week 1, LOCF): 0.13 (0.75) | Change from Baseline in CGI Severity of Illness Score, Median ([2]; Bifeprunox 10 mg, Week 1, LOCF): 0.0 | Change from Baseline in CGI Severity of Illness Score, Mean (S.D.) ([2]; Bifeprunox 10 mg, Week 2, LOCF): −2.3 (0.92) | Change from Baseline in CGI Severity of Illness Score, Median ([2]; Bifeprunox 10 mg, Week 2, LOCF): 0.0 | Change from Baseline in CGI Severity of Illness Score, Mean (S.D.) ([2]; Bifeprunox 10 mg, Week 3, LOCF): −0.22 (1.01) | Change from Baseline in CGI Severity of Illness Score, Median ([2]; Bifeprunox 10 mg, Week 3, LOCF): 0.0 | Change from Baseline in CGI Severity of Illness Score, Mean (S.D.) ([2]; Bifeprunox 10 mg, Week 4, LOCF): −0.16 (0.99) | Change from Baseline in CGI Severity of Illness Score, Median ([2]; Bifeprunox 10 mg, Week 4, LOCF): 0.0 | Change from Baseline in CGI Severity of Illness Score, Mean (S.D.) [2, 6]: −0.52 (0.96) | Change from Baseline in CGI Severity of Illness Score, Median [2, 6]: 0.0 | Change from Baseline in CGI Severity of Illness Score, Trt Effect (bifeprunox—placebo) [2, 6]: −0.19 | Change from Baseline in CGI Severity of Illness Score, Mean (S.D.) ([2]; Bifeprunox 20 mg, Week 1, LOCF): −0.31 (0.74) | Change from Baseline in CGI Severity of Illness Score, Median ([2]; Bifeprunox 20 mg, Week 1, LOCF): 0.0 | Change from Baseline in CGI Severity of Illness Score, Mean (S.D.) ([2]; Bifeprunox 20 mg, Week 2, LOCF): −0.50 (0.85) | Change from Baseline in CGI Severity of Illness Score, Median ([2]; Bifeprunox 20 mg, Week 2, LOCF): 0.0 | Change from Baseline in CGI Severity of Illness Score, Mean (S.D.) ([2]; Bifeprunox 20 mg, Week 3, LOCF): −0.57 (0.90) | Change from Baseline in CGI Severity of Illness Score, Median ([2]; Bifeprunox 20 mg, Week 3, LOCF): 0.0 | Change from Baseline in CGI Severity of Illness Score, Mean (S.D.) ([2]; Bifeprunox 20 mg, Week 4, LOCF): −0.57 (0.89) | Change from Baseline in CGI Severity of Illness Score, Median ([2]; Bifeprunox 20 mg, Week 4, LOCF): 0.0 | CGI severity of illness score, treatment effect (bifeprunox—placebo) ([2]; bifeprunox 20 mg, Endpoint LOCF): −0.19 | PANSS responder rate, 20% definition ([3]; Bifeprunox 5 mg): 28% | PANSS Responder at Endpoint (LOCF), 20% Definition ([3]; Bifeprunox 5 mg): 31 (28) n (%) | PANSS Responder at Endpoint (LOCF), 25% Definition ([3]; Bifeprunox 5 mg): 25 (23) n (%) | PANSS Responder at Endpoint (LOCF), 30% Definition ([3]; Bifeprunox 5 mg): 16 (15) n (%) | PANSS Responder at Endpoint (LOCF), 35% Definition ([3]; Bifeprunox 5 mg): 11 (10) n (%) | PANSS responder rate, 20% definition ([3]; Bifeprunox 10 mg): 24% | PANSS Responder at Endpoint (LOCF), 20% Definition ([3]; Bifeprunox 10 mg): 28 (24) n (%) | PANSS Responder at Endpoint (LOCF), 25% Definition ([3]; Bifeprunox 10 mg): 22 (19) n (%) | PANSS Responder at Endpoint (LOCF), 30% Definition ([3]; Bifeprunox 10 mg): 12 (10) n (%) | PANSS Responder at Endpoint (LOCF), 35% Definition ([3]; Bifeprunox 10 mg): 7 (6) n (%) | PANSS Responder at Endpoint (LOCF), 20% Definition ([3]; Bifeprunox 20 mg): 38 (34) n (%) | PANSS Responder at Endpoint (LOCF), 25% Definition ([3]; Bifeprunox 20 mg): 27 (24) n (%) | PANSS Responder at Endpoint (LOCF), 30% Definition ([3]; Bifeprunox 20 mg): 18 (16) n (%) | PANSS Responder at Endpoint (LOCF), 35% Definition ([3]; Bifeprunox 20 mg): 14 (13) n (%) | PANSS responder rate, 20% definition ([3]; bifeprunox 20 mg): 34% | CGI Responder No, % ([4]; 20 mg): 62% | CGI Responder Yes, % ([4]; 20 mg): 38% | CGI Responder No, % ([4]; 30 mg): 66% | CGI Responder Yes, % ([4]; 30 mg): 34% | CGI-I responder rate (subjects much or very much improved) at Endpoint ([4]; bifeprunox 20 mg): 38% | CGI-I responder rate (subjects much or very much improved) at Endpoint ([4]; bifeprunox 30 mg): 34%
